These results are taken from PubChem BioAssay AID588714 (Southern Research Specialized Biocontainment Screening …, 2011).

Inconclusive results are not listed. Calls of active or inactive are those of the source.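 How the source made its calls: active means viability below 80% at one or more tested concentrations, meaning the compound is toxic to the cells; inconclusive means replicate runs disagree on whether viability fell below 80%; inactive means viability of 80% or more at every dose.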

Test system in one experiment: not listed separately
The experiment in a line: viability reduction of Vero E6 cells – cell-based, M18 aspartyl aminopeptidase campaign, cytotoxicity control for P. falciparum PFM18AAP inhibitor project, dose response (AID 588714). The note with it: Vero E6 viability, CellTiter-Glo luminescence, 72 h; at 25 µM (top of the series).
For the molecule `O=C(O)CCCCNc1c2ccccc2nc2ccccc12`, the viability was 96.8% (inactive). Same read-out and setting: as for `O=C(O)CCCNc1c2ccccc2nc2ccccc12`, the figure is 103% (inactive).

Still in this experiment, the particulars now being: Vero E6 viability, CellTiter-Glo luminescence, 72 h; at 50 µM (top of the series).
For the molecule `COc1ccc(CCNC2CCN(C)CC2)cc1OC`, the viability is 97.5% (inactive). Turning to `O=C(c1ccco1)N1CCN(Cc2cc(=O)c(O)co2)CC1`, the viability was 92.2% (inactive).

Regarding `COc1ccc(CCN2CCN(C)CC2)cc1OC`, the viability is 98% (inactive).

Consider `CCC(C)c1ccc(N)c(O)c1` (stereo not given), for which the viability is 103% (inactive). On the same count and under the same terms, as for `O=C(c1ccco1)N1CCN(Cc2cc(=O)c(O)c[nH]2)CC1`, the figure is 100% (inactive); as for `Cc1c(-c2ccccc2)[nH]c(-c2ccc(O)c(O)c2)[n+]1O`, 97.2% (inactive).

On to `Nc1cc(C(=O)c2ccccc2)ccc1O`, for which the viability is 104% (inactive).

Regarding `CCC(C)C(=O)Nc1ccccc1O` (stereo not given), the viability is 99.8% (inactive). For the molecule `Oc1ccc(CCNc2c3c(nc4ccccc24)CCCC3)cc1O`, the viability was 92.2% (inactive). Take `COc1ccc(CCN(C)c2ccncc2)cc1OC`: the viability was 83.9% (inactive). As for `O=c1cc(CO)oc(CN2CCCCC2)c1O`, the viability is 99.7% (inactive). Still for that read-out and setting: with `Cc1c(O)c(=O)ccn1CCNc1c2ccccc2nc2ccccc12` the figure was 89.4% (inactive). Take `O=C1OCCN1CCc1nc(-c2ccc(O)c(O)c2)cs1`: the viability is 92.6% (inactive). Still for that read-out and setting: with `COc1ccc(CCC(=O)O)cc1OC` the figure was 94.6% (inactive). Same read-out and setting: as for `Oc1ccc(CCN2CCc3ccccc3C2)cc1O`, the figure is 85.7% (inactive). Same read-out and setting: with `CN(CCc1ccc(O)c(O)c1)c1ccncc1` the figure was 99.3% (inactive).

For the molecule `COc1ccc(CCN2CCc3ccccc3C2)cc1OC`, the viability was 86.9% (inactive).

For the molecule `CCC(C)C(=O)Nc1ccccc1N` (stereo not given), the viability was 105% (inactive). Take `COc1ccc(CC(=O)O)cc1OC`: the viability was 108% (inactive). Still for that read-out and setting: as for `COc1ccc(CCNc2ccncc2)cc1OC`, the figure is 87.5% (inactive).

For a further experiment, the system named is Vero E6 viability, CellTiter-Glo luminescence, 72 h. The description is as above.
Conditions: not given
In the case of `O=c1ccc2cc(O)c(O)cc2o1`, the CC50 is 38.2 µM. On the same count and under the same terms, as for `COc1ccc(CNc2c3ccccc3nc3ccccc23)cc1OC`, the figure is 5.37 µM; as for `COc1ccc(CCCNc2c3ccccc3nc3ccccc23)cc1OC`, 21.8 µM. As to `Cc1nc(NCCc2ccc(O)c(O)c2)c2c3c(sc2n1)CCC3`, the CC50 is 43.7 µM. Still for that read-out and setting: as for `Oc1ccc(CCNc2cccc3ccccc23)cc1O`, the figure is 16.5 µM. Still for that read-out and setting: as for `O=C1c2ccc3c4c(ccc(c24)C(=O)N1O)CC3`, the figure is 9.17 µM. As to `COc1ccc(CCNc2c3ccccc3nc3ccccc23)cc1OC`, the CC50 was 12.6 µM. With `NCCNc1c2ccccc2nc2ccccc12`, the CC50 was 45.3 µM. The same measure, in the same setting: with `Oc1ccc(CCNc2ccc3ccccc3c2)cc1O` the figure was 28.3 µM.

On to `Oc1ccc(-c2csc(Cc3cc4ccccc4[nH]3)n2)cc1O`, for which the CC50 was 15.5 µM. Consider `NCc1cc2c3c(c(=O)oc2c(O)c1O)CCC3`, for which the CC50 is 29.2 µM. Still for that read-out and setting: as for `COc1ccc(CCN(C)c2c3ccccc3nc3ccccc23)cc1OC`, the figure is 15.9 µM. As for `Oc1ccc(CCNc2c3ccccc3nc3ccccc23)cc1`, the CC50 was 7.34 µM.

Turning to `CCOc1cccc(-c2nc(-c3ccc(O)c(O)c3)cs2)c1`, the CC50 was 21.2 µM. On the same count and under the same terms, with `COc1cccc(CCNc2c3ccccc3nc3ccccc23)c1` the figure was 8.75 µM; with `COc1ccc(CCNc2c3ccccc3nc3ccccc23)cc1`, 14.9 µM; with `Oc1ccc(CCNc2cncc3ccccc23)cc1O`, 37.7 µM. The same measure, in the same setting: with `Oc1ccc(CNc2c3ccccc3nc3ccccc23)cc1O` the figure was 7.78 µM. Still for that read-out and setting: with `O=c1cc(CN2CCN(Cc3ccccc3)CC2)c2ccc(O)c(O)c2o1` the figure was 15.9 µM; with `CC(C)(C)C(=O)OCc1nc(-c2ccc(O)c(O)c2)cs1`, 31.6 µM.

Consider `O=S1(=O)c2ccccc2-c2cc(-c3nc(-c4ccc(O)c(O)c4)[nH]c3-c3ccccc3)ccc21`, for which the CC50 was 19.4 µM. Same read-out and setting: as for `Cc1ccc(-c2nc(-c3ccc(O)c(O)c3)cs2)cc1`, the figure is 24.5 µM; as for `Oc1ccc(CCNC(c2ccccc2)c2ccccc2)cc1O`, 36.3 µM.

Broadly, the viability is a read-out of living cells in per cent, often relative to untreated cells. Broadly, the CC50 is the concentration giving 50% cytotoxicity.
